IC50 data for 19 compounds are collected here from patent US10898481B2 (priority 2018, dated 2021).

The target of one experiment is hA2a/CHO (Homo sapiens (Human), UniProt P29274). In words: cAMP inhibition assay in hA2a/CHO cells, 10 μM adenosine.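 Note: compounds added to cells 30 min ahead of adenosine, then a further 30 min at 37 °C with adenosine before cAMP detection.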 It counts as cell-based. Particulars: read-out: cAMP & FLIPR IC50 (nM) hA2a.
The target of experiment [1] is hADORA1/CHO (hA1 expressing) cells (Homo sapiens (Human), UniProt P30542). Kind of experiment: cell-based. As to conditions: FLIPR inhibition, 10 μM adenosine, read-out: cAMP & FLIPR IC50 (nM) hA1.

A word on the IC50: it is the concentration that gives 50% inhibition.

hADORA1/CHO (hA1 expressing) cells, sequence (P30542 whole entry): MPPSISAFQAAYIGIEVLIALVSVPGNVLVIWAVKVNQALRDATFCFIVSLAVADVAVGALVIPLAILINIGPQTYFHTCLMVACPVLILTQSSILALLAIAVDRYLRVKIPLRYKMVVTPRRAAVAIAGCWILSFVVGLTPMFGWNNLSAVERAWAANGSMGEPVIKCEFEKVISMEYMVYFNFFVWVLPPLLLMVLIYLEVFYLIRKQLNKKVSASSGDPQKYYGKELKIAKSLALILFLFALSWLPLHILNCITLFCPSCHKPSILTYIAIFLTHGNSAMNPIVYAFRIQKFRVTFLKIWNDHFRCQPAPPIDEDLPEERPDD
hA2a/CHO, sequence (P29274 whole entry): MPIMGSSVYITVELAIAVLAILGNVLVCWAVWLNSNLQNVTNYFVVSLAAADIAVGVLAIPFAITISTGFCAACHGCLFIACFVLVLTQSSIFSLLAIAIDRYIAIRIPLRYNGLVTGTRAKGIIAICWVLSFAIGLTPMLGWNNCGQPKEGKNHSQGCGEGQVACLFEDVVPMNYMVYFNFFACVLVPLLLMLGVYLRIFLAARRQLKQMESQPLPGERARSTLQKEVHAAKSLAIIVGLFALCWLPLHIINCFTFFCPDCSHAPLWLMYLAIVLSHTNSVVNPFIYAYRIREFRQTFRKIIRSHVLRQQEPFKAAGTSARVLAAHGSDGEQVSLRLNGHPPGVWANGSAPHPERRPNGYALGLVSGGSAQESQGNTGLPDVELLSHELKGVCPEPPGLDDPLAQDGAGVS
Description for hA2a/CHO: hA2a/CHO, hA2b/CHO, hA3/CHO and mA2a/CHO (Genscript) were plated at 5×10^3 cells/well into 384-well polystyrene plates at the day of experiment. Compounds were pre-incubated with cells for 30 min at 37° C., 5% CO2. Then 10 μM adenosine was added to the cells and incubated for 30 min at 37° C., 5% CO2. Detection reagent (CISBIO) was added and the plates were incubated for 60 min at room temperature. The signal was captured by Envision.

On to `Cc1cnc2ccc(-c3nc(C(=O)NCCN(C)C4CCOC4)c(N)nc3-c3ncco3)cn12` (racemic) [Cmpd. 233, rac-3-amino-N-(2-(methyl(tetrahydrofuran-3-yl)amino)ethyl)-6-(3-methylimidazo[1,2-a]pyridin-6-yl)-5-(oxazol-2-yl)pyrazine-2-carboxamide], for which the half-inhibitory concentration (IC50) was determined as 38 nM on hA2a/CHO and 1910 nM in experiment [1].

Take `Cc1cnc2ccc(-c3nc(C(=O)NCc4cccc(N5CCC(N(C)C)C5)n4)c(N)nc3-c3ncco3)cn12` (single isomer, unassigned) [Cmpd. 232, 3-amino-N-((6-(3-(dimethylamino)pyrrolidin-1-yl)pyridin-2-yl)methyl)-6-(3-methylimidazo[1,2-a]pyridin-6-yl)-5-(oxazol-2-yl)pyrazine-2-carboxamide]: the IC50 at hA2a/CHO was determined as 0.5 nM; in experiment [1], 1500 nM.

Take `Cc1cnc2ccc(-c3nc(C(=O)NCc4cccc(N5CCC(N(C)C)C5)n4)c(N)nc3-c3ncco3)cn12` (single isomer, unassigned) [Cmpd. 235, 3-amino-N-((6-(3-(dimethylamino)pyrrolidin-1-yl)pyridin-2-yl)methyl)-6-(3-methylimidazo[1,2-a]pyridin-6-yl)-5-(oxazol-2-yl)pyrazine-2-carboxamide]: the IC50 on hA2a/CHO is 0.8 nM; in experiment [1], 5180 nM.

For the compound `Cc1cnc2ccc(-c3nc(C(=O)NCC(C4CC4)N(C)C)c(N)nc3-c3ncco3)cn12` (single isomer, unassigned; isomer 1) [Example 253, 3-amino-N-(2-cyclopropyl-2-(dimethylamino)ethyl)-6-(3-methylimidazo[1,2-a]pyridin-6-yl)-5-(oxazol-2-yl) pyrazine-2-carboxamide (isomer 1)], the IC50 on hA2a/CHO worked out at 12 nM; in experiment [1], 8170 nM.

Regarding `Cc1cnc2ccc(-c3nc(C(=O)NCC4CC(C)(C)O4)c(N)nc3-c3ncco3)cn12` (single isomer, unassigned; isomer 1) [Example 260, 3-amino-N-((4,4-dimethyloxetan-2-yl)methyl)-6-(3-methylimidazo[1,2-a]pyridin-6-yl)-5-(oxazol-2-yl)pyrazine-2-carboxamide (isomer 1)], the concentration for half-maximal inhibition (IC50) on hA2a/CHO turned out to be 5.9 nM; in experiment [1], 30 nM.

Take `Cc1cnc2ccc(-c3nc(C(=O)NCC4CCCN(C)C4=O)c(N)nc3-c3ncco3)cn12` (single isomer, unassigned; isomer 1) [Example 263, 3-amino-N-((1-methyl-2-oxopiperidin-3-yl)methyl)-6-(3-methylimidazo[1,2-a]pyridin-6-yl)-5-(oxazol-2-yl) pyrazine-2-carboxamide (isomer 1)]: the IC50 at hA2a/CHO came out at 0.4 nM; in experiment [1] it was 103 nM.

On to `NCc1cnc2ccc(-c3nc(C(=O)NCc4ncccc4F)c(N)nc3-c3ncco3)cn12` [Cmpd. 198, 3-amino-6-(3-(aminomethyl)imidazo[1,2-a]pyridin-6-yl)-N-((3-fluoropyridin-2-yl)methyl)-5-(oxazol-2-yl)pyrazine-2-carboxamide], for which the IC50 in experiment [1] was greater than 10000 nM.

Regarding `Cc1cnc2ccc(-c3nc(C(=O)NCc4ncccc4F)c(N)nc3N3CCOCC3)cn12` [Cmpd. 223, 3-amino-N-[(3-fluoropyridin-2-yl)methyl]-6-[3-methylimidazo[1,2-a]pyridin-6-yl]-5-(morpholin-4-yl)pyrazine-2-carboxamide], in experiment [1], the IC50 was greater than 10000 nM.

In the case of `Cc1cnc2ccc(-c3nc(C(=O)NCc4cccc(N5CCN(C)C[C@@H]5C)n4)c(N)nc3-c3ncco3)cn12` [Example 287-2, (S)-3-amino-N-((6-(2,4-dimethylpiperazin-1-yl)pyridin-2-yl)methyl)-6-(3-methylimidazo[1,2-a]pyridin-6-yl)-5-(oxazol-2-yl)pyrazine-2-carboxamide], the IC50 on hA2a/CHO is 4.4 nM.

For the compound `Cc1cnc2ccc(-c3nc(CNC(=O)[C@H]4CCCN4C)c(N)nc3-n3nccn3)cn12` [Example 290, (2R)—N-[(3-amino-6-[3-methylimidazo[1,2-a]pyridin-6-yl]-5-(2H-1,2,3-triazol-2-yl)pyrazin-2-yl)methyl]-1-methylpyrrolidine-2-carboxamide], the IC50 on hA2a/CHO is 5.8 nM.

For the compound `Cc1cnc2ccc(-c3nc(CNC(=O)[C@H]4CCCN4C)c(N)nc3-c3cc(F)cc(F)c3)cn12` [Example 291, (2R)—N-[[3-amino-5-(3,5-difluorophenyl)-6-[3-methylimidazo[1,2-a]pyridin-6-yl]pyrazin-2-yl]methyl]-1-methylpyrrolidine-2-carboxamide], the IC50 on hA2a/CHO turned out to be 1.1 nM.

For the compound `Cc1cnc2ccc(-c3nc(C(=O)N[C@@H](C)Cn4ccnn4)c(N)nc3-c3ncco3)cn12` [Example 296, (S)-N-(1-(lH-1,2,3-triazol-1-yl)propan-2-yl)-3-amino-6-(3-methylimidazo[1,2-a]pyridin-6-yl)-5-(oxazol-2-yl) pyrazine-2-carboxamide], the IC50 on hA2a/CHO came to 0.9 nM.

Regarding `Cc1cnc2ccc(-c3nc(C(=O)N[C@@H](C)Cn4nccn4)c(N)nc3-c3ncco3)cn12` [Example 297, 3-amino-6-[3-methylimidazo[1,2-a]pyridin-6-yl]-5-(1,3-oxazol-2-yl)-N-[(2S)-1-(2H-1,2,3-triazol-2-yl)propan-2-yl]pyrazine-2-carboxamide], the IC50 at hA2a/CHO is 0.2 nM.

As to `Cc1cnc2ccc(-c3nc(C(=O)N[C@H](C)Cn4nccn4)c(N)nc3-c3ncco3)cn12` [Example 298, 3-amino-6-[3-methylimidazo[1,2-a]pyridin-6-yl]-5-(1,3-oxazol-2-yl)-N-[(2R)-1-(2H-1,2,3-triazol-2-yl)propan-2-yl]pyrazine-2-carboxamide], the IC50 on hA2a/CHO stood at 47 nM.

For the compound `COCCCNC(=O)c1nc(-c2ccc3ncc(C)n3c2)c(-n2nccn2)nc1N` [Example 299, 3-amino-N-(3-methoxypropyl)-6-(3-methylimidazo[1,2-a]pyridin-6-yl)-5-(2H-1,2,3-triazol-2-yl)pyrazine-2-carboxamide], at hA2a/CHO, the IC50 worked out at 4.9 nM.

Regarding `Cc1cnc2ccc(-c3nc(C(=O)NCc4ncccc4OCCO)c(N)nc3-c3ncco3)cn12` [Example 300, 3-amino-N-((3-(2-hydroxyethoxy)pyridin-2-yl)methyl)-6-(3-methylimidazo [1,2-a]pyridin-6-yl)-5-(oxazol-2-yl) pyrazine-2-carboxamide], the IC50 on hA2a/CHO was determined as 0.8 nM.

As for `CNCCOc1cccnc1CNC(=O)c1nc(-c2ccc3ncc(C)n3c2)c(-c2ncco2)nc1N` [Example 301, 3-amino-N-([3-[2-(methylamino)ethoxy]pyridin-2-yl]methyl)-6-[3-methylimidazo[1,2-a]pyridin-6-yl]-5-(1,3-oxazol-2-yl)pyrazine-2-carboxamide], the IC50 on hA2a/CHO is 3 nM.

`Cc1cnc2ccc(-c3nc(C(=O)NCc4cccc(N5CCC(N(C)C)CC5)n4)c(N)nc3-c3ncco3)cn12` [Example 302, 3-amino-N-((6-(4-(dimethylamino)piperidin-1-yl)pyridin-2-yl)methyl)-6-(3-methylimidazo[1,2-a]pyridin-6-yl)-5-(oxazol-2-yl)pyrazine-2-carboxamide]: the IC50 on hA2a/CHO turned out to be 2.4 nM.

Regarding `CNC1CN(c2cccc(CNC(=O)c3nc(-c4ccc5ncc(C)n5c4)c(-c4ncco4)nc3N)n2)C1` [Example 303, 3-amino-N-((6-(3-(methylamino)azetidin-1-yl)pyridin-2-yl)methyl)-6-(3-methylimidazo[1,2-a]pyridin-6-yl)-5-(oxazol-2-yl)pyrazine-2-carboxamide], the IC50 at hA2a/CHO worked out at 0.4 nM.
